Experimental data published in PubChem BioAssay (NCI).
“And” between values parts separate entries of the source, which are not always exact repeats. Identical values can stand only once.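 Test compounds were applied to cells in 96-well plates for 48 hours at 5 doses. Here, GI50 denotes the concentration required for 50% inhibition of growth. The concentration for full growth arrest is given as TGI.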

What was measured:
Assay in all cases: inhibition of tumour cell growth, NCI panel, 48 h
A549 NSCLC = test system: A549 NSCLC
DMS 273 small cell lung = test system: DMS 273 small cell lung
EKVX NSCLC = test system: EKVX NSCLC
HL-60(TB) leukemia = test system: HL-60(TB) leukemia
HOP-92 NSCLC = test system: HOP-92 NSCLC
LXFL 529 NSCLC = test system: LXFL 529 NSCLC
NCI-H522 lung = test system: NCI-H522 lung
SN12C renal = test system: SN12C renal
SNB-78 CNS = test system: SNB-78 CNS
NCI/ADR-RES ovarian = test system: NCI/ADR-RES ovarian
T-47D breast = test system: T-47D breast

Row | SMILES | TGI (A549 NSCLC) | TGI (DMS 273 small cell lung) [µM] | TGI (EKVX NSCLC) | TGI (HL-60(TB) leukemia) | TGI (HOP-92 NSCLC) | TGI (LXFL 529 NSCLC) [µM] | TGI (NCI-H522 lung) | TGI (SN12C renal) | TGI (SNB-78 CNS) [µM] | GI50 (EKVX NSCLC) | GI50 (HL-60(TB) leukemia) | GI50 (HOP-92 NSCLC) | GI50 (LXFL 529 NSCLC) [µM] | GI50 (NCI-H522 lung) | GI50 (SN12C renal) | GI50 (A549 NSCLC) | GI50 (NCI/ADR-RES ovarian) | TGI (NCI/ADR-RES ovarian) | GI50 (T-47D breast) | TGI (T-47D breast)
1 | CCOC(=O)C1=C(C)NC(=O)NC1c1ccc(OC)cc1OC (stereo not drawn) | > 100 µM | > 100 | > 100 µM | > 100 µM | > 100 µM | > 100 | > 100 µM | > 100 µM | > 100 | – | – | – | – | – | – | – | – | – | – | –
2 | C=CCCCCCCCCCP(=O)(c1ccccc1)c1ccc2c(c1)OCCOCCOCCOCCO2 (stereo not drawn) | 28.1 µM | 29.1 | 34.2 µM | 19.7 µM | > 100 µM | – | 24.5 µM | 32.4 µM | 34.5 | – | – | – | – | – | – | – | – | – | – | –
3 | C[P+]1(Cc2ccccc2)CCCC1 | > 100 µM | > 100 | > 100 µM | > 100 µM | – | > 100 | > 100 µM | > 100 µM | > 100 | – | – | – | – | – | – | – | – | – | – | –
4 | CC(=O)[CH-]C(=O)c1ccccc1.CC(=O)[CH-]C(=O)c1ccccc1.Cl.[O-]c1ccnc2ccccc12.[O-]c1ccnc2ccccc12.[Ti+4] | – | – | > 100 µM | > 100 µM | > 100 µM | > 100 | > 100 µM | > 100 µM | – | > 100 µM | > 100 µM | > 100 µM | > 100 | > 100 µM | > 100 µM | – | – | – | – | –
5 | c1ccc(C2=NOC3C4CCC(C4)C23)cc1 (stereo not drawn) | > 100 µM | > 100 | > 100 µM | > 100 µM | > 100 µM | > 100 | > 100 µM | > 100 µM | > 100 | – | – | – | – | – | – | – | – | – | – | –
6 | O=C1c2ccccc2C(=O)N1CCCOCc1c[nH]c(=O)[nH]c1=O | > 100 µM | > 100 | > 100 µM | > 100 µM | > 100 µM | > 100 | > 100 µM | > 100 µM | – | – | – | – | – | – | – | – | – | – | – | –
7 | COc1cccc(NC(=O)CSc2nnc(Cc3ccccc3)o2)c1 | > 100 µM | > 100 | – | > 100 µM | – | > 100 | > 100 µM | > 100 µM | > 100 | – | – | – | – | – | – | – | – | – | – | –
8 | CN(C)NC1=C([N+](=O)[O-])C=NN(c2ccccc2)C1 | 3.87 µM | 3.18 | 3.52 µM | 4.62 µM | 3.76 µM | 3.03 | 0.343 µM | 3.22 µM | 4.3 | – | – | – | – | – | – | – | – | – | – | –
9 | C=C1C(=O)O[C@H](c2ccoc2)C[C@@H]1[C@@]1(C)CCCC2(C)C(=O)OCC21 (stereo partly drawn) | > 100 µM | > 100 | > 100 µM | – | – | > 100 | > 100 µM | > 100 µM | > 100 | – | – | – | – | – | – | – | – | – | – | –
10 | CN(c1ccccc1)c1cc2ccccc2nn1 | > 100 µM | > 100 | > 100 µM | > 100 µM | > 100 µM | > 100 | > 100 µM | > 100 µM | > 100 | – | – | – | – | – | – | – | – | – | – | –
11 | Cc1cccc(C)c1NC(=O)CCC(=O)NC(N)=NC#N | > 100 µM | – | > 100 µM | > 100 µM | > 100 µM | > 100 | > 100 µM | > 100 µM | – | – | – | – | – | – | – | – | – | – | – | –
12 | CN(C)NC(=O)/C(=C/c1ccc(Cl)cc1)NC(=O)c1ccccc1 | > 100 µM | > 100 | > 100 µM | > 100 µM | > 100 µM | > 100 | > 100 µM | > 100 µM | – | – | – | – | – | – | – | – | – | – | – | –
13 | CC1OC(n2cc(C(F)(F)F)c(=O)[nH]c2=O)C=CC1=O (stereo not drawn) | > 100 µM | – | – | 41.2 µM | 41 µM | 31.6 | 32.5 µM | 57.8 µM | 31.5 | – | – | – | – | – | – | – | – | – | – | –
14 | COc1ccc(CN2C(=O)[C@@H]3Cc4c(OC)c(C)c(OC)c(OC)c4[C@H](/C2=C\c2cc(OC)c(OC)c(C)c2OC)N3C(=O)OC(C)C)cc1 | > 100 µM | > 100 | > 100 µM | > 100 µM | > 100 µM | > 100 | > 100 µM | > 100 µM | – | – | – | – | – | – | – | – | – | – | – | –
15 | C=C1c2nc3ccccc3n2C=C(c2cccc(Cl)c2)N1Cc1ccc(OC)cc1 | > 100 µM | – | 12.8 µM | 0.639 µM | > 82.4 µM | – | 1.1 µM | 50.3 µM | – | 1.07 µM | 0.193 µM | 2.36 µM | – | 0.221 µM | 1.26 µM | 3.98 µM | 0.441 µM | 5.49 µM | 2.55 µM | > 80.4 µM
16 | COC(=O)C1=CC2C(=O)OC1C1C(=O)NC(=O)C21 (stereo not drawn) | > 100 µM | > 100 | – | > 100 µM | > 100 µM | > 100 | > 100 µM | > 100 µM | > 100 | – | – | – | – | – | – | – | – | – | – | –
17 | O=S(=O)(NC1=NCCN1C(=S)SN1CCn2c1nsc2=S)c1ccc(Oc2ccccc2)cc1 | > 100 µM | – | > 100 µM | 11.3 µM | > 100 µM | – | 69 µM | > 100 µM | – | > 100 µM | 2.78 µM | 74.2 µM | – | 26.2 µM | 59.8 µM | > 100 µM | 77.4 µM | > 100 µM | 81.3 µM | > 100 µM
18 | CCC12C=CCN(CCc3c([nH]c4ccccc34)/C=C\1)C2 (stereo not drawn) | > 100 µM | > 100 | > 100 µM | > 100 µM | – | > 100 | > 100 µM | > 100 µM | – | – | – | – | – | – | – | – | – | – | – | –
19 | O=C(NC1CC1)c1c(O)[nH]c(=S)[nH]c1=O | > 100 µM | – | – | > 100 µM | > 100 µM | > 100 | > 100 µM | > 100 µM | > 100 | – | – | – | – | – | – | – | – | – | – | –
20 | CCOC(=O)c1cc(=O)n(C)c(=O)n1C | > 100 µM | > 100 | > 100 µM | – | > 100 µM | > 100 | > 100 µM | > 100 µM | > 100 | – | – | – | – | – | – | – | – | – | – | –
21 | O=c1nc2sc3ccccc3c(=O)n2[nH]1 | > 100 µM | > 100 | > 100 µM | > 100 µM | > 100 µM | > 100 | – | > 100 µM | > 100 | – | – | – | – | – | – | – | – | – | – | –
22 | Cc1cc(O)ccc1C1=NN(c2ccc(S(N)(=O)=O)cc2)C(=O)CC1 | 50 µM and > 100 µM | – | 50 µM and > 100 µM | 50 µM and > 100 µM | 50 µM and 75.5 µM | – | 33.5 µM and > 100 µM | 50 µM and > 100 µM | – | 3.87 µM and 19.2 µM | 1.85 µM and 5 µM | 11.1 µM and 18.5 µM | – | 1.12 µM and 2.48 µM | 6.68 µM and 42.6 µM | 14 µM and 15.3 µM | 2.36 µM and 3.9 µM | 50 µM and 30 µM | 3.23 µM and 13.1 µM | 50 µM and > 100 µM
23 | CC1=CC(=O)N(c2cccc3c(N4C(=O)C=C(C)C4=O)cccc23)C1=O | > 100 µM | – | 33.5 µM | 8.8 µM | 21 µM | – | 1.79 µM | 26.5 µM | – | 15.6 µM | 2.38 µM | 2.5 µM | – | 0.693 µM | 8.62 µM | 32.5 µM | 10.4 µM | > 89 µM | 2.07 µM | 9.12 µM
